The results in this text go back to BindingDB's records for doi:10.1021/jm021114j (Cardiff University, 2003).

pIC50: −log10 of the molar value.

The target in this assay is Sterol 24-C-methyltransferase (Leishmania major). Nature of the assay: In vitro inhibitory concentration against Leishmania major Sterol 24-C-methyltransferase (24-SMT).
For the molecule `CC(O)(C1CCCCN1)[C@H]1CC[C@H]2[C@@H]3CCC4C[C@@H](O[Si](C)(C)C(C)(C)C)CC[C@]4(C)[C@H]3CC[C@]12C` (stereo not given in full), the pIC50 (usually the negative decadic logarithm of the IC50, by convention in mol/L) was 4.91.

Turning to `CC(O)(c1cccnc1)[C@H]1CCC2C3CCC4C[C@@H](O)CC[C@]4(C)C3CC[C@@]21C` (stereo partly drawn) [(3S,10S,13S,17S)-17-(1-Hydroxy-1-pyridin-3-yl-ethyl)-10,13-dimethyl-hexadecahydro-cyclopenta[a]phenanthren-3-ol], the pIC50 is 4.41. The same measure for `CCC(=O)N1CCCCC1C(C)(O)[C@H]1CCC2C3CCC4C[C@@H](O)CC[C@]4(C)C3CC[C@@]21C` (stereo partly drawn) [1-{2-[1-Hydroxy-1-((3S,10S,13S,17S)-3-hydroxy-10,13-dimethyl-hexadecahydro-cyclopenta[a]phenanthren-17-yl)-ethyl]-piperidin-1-yl}-propan-1-one]: 4.89; for `CC(O)(C1CCCNC1)[C@H]1CCC2C3CCC4C[C@@H](O)CC[C@]4(C)C3CC[C@@]21C` (stereo partly drawn) [(3S,10S,13S,17S)-17-(1-Hydroxy-1-piperidin-3-yl-ethyl)-10,13-dimethyl-hexadecahydro-cyclopenta[a]phenanthren-3-ol]: 7.00. `CC(O)(C1CCCNC1)[C@H]1CCC2C3CCC4C[C@@H](O[Si](C)(C)C(C)(C)C)CC[C@]4(C)C3CC[C@@]21C` (stereo partly drawn) [1-[(3S,10S,13S,17S)-3-(tert-Butyl-dimethyl-silanyloxy)-10,13-dimethyl-hexadecahydro-cyclopenta[a]phenanthren-17-yl]-1-piperidin-3-yl-ethanol] gave a negative-log IC50 (pIC50) of 5.10.
